Activity calls are given as the source filed them. The calls are words filed in the database; no cut-off is given here.
Key:
A549 [1] = assay: Cell cycle arrest in human A549 cells assessed as accumulation at S phase at 5 uM incubated for 48 hrs […] staining based flow cytometric analysis (reference value: 22.64 %); type: functional
NCI-H1975 [2] = assay: Induction of apoptosis in human H1975 cells assessed as early apoptotic cells at 5 uM incubated for 48 hrs Annexin V-FITC staining based flow cytometric analysis (reference value: 2.06 %); type: functional
[3] = biological target: Serine/threonine-protein kinase mTOR (Homo sapiens) (UniProt P42345); assay: Inhibition of mTOR (unknown origin) at 1 uM relative to control
A549 [4] = assay: Cell cycle arrest in human A549 cells assessed as accumulation at G2/M phase at 5 uM incubated for 48 hrs […] staining based flow cytometric analysis (reference value: 2.67 %); type: functional
NCI-H1975 [5] = assay: Induction of apoptosis in human H1975 cells assessed as necrotic cells at 5 uM incubated for 48 hrs Annexin V-FITC staining based flow cytometric analysis (reference value: 0.08 %); type: functional
[6] = biological target: Vascular endothelial growth factor receptor 2 (Homo sapiens) (UniProt P35968); assay: Inhibition of KDR (unknown origin) at 1 uM relative to control
NCI-H1975 [7] = assay: Induction of apoptosis in human H1975 cells assessed as late apoptotic cells at 5 uM incubated for 48 hrs Annexin V-FITC staining based flow cytometric analysis (reference value: 1.77 %); type: functional
NCI-H1975 [8] = assay: Induction of apoptosis in human H1975 cells assessed as live cells at 5 uM incubated for 48 hrs Annexin V-FITC staining based flow cytometric analysis (reference value: 96.09 %); type: functional
Homo sapiens = species: Homo sapiens; assay: Inhibition of PI3K (unknown origin) at 1 uM relative to control
[9] = biological target: Hepatocyte growth factor receptor (Homo sapiens) (UniProt P08581); assay: Inhibition of C-MET (unknown origin) at 1 uM relative to control
A549 [10] = assay: Cell cycle arrest in human A549 cells assessed as accumulation at G0/G1 phase at 5 uM incubated for 48 hrs […] staining based flow cytometric analysis (reference value: 74.69 %); type: functional
MCF7 = assay: Antiproliferation activity against human MCF7 cells assessed as reduction in cell viability measured after 72 hrs by MTT assay; type: functional, cell-based; details: MCF7, 72 h
NCI-H1975 [11] = assay: Induction of apoptosis in human H1975 cells assessed as late apoptotic cells at 1 uM incubated for 48 hrs Annexin V-FITC staining based flow cytometric analysis (reference value: 1.77 %); type: functional
A549 [12] = assay: Antiproliferation activity against human A549 cells assessed as reduction in cell viability measured after 72 hrs by MTT assay; type: functional, cell-based; details: A549, 72 h
NCI-H1975 [13] = assay: Induction of apoptosis in human H1975 cells assessed as necrotic cells at 10 uM incubated for 48 hrs Annexin V-FITC staining based flow cytometric analysis (reference value: 0.08 %); type: functional
[14] = biological target: Epidermal growth factor receptor (Homo sapiens, UniProt P00533, T790M); assay: Inhibition of EGFR T790M mutant (unknown origin) using FAM-labelled peptide as substrate incubated for 10 mins fin presence of ATP by Kinase Glo luminescence assay
[15] = biological target: Epidermal growth factor receptor (Homo sapiens, UniProt P00533); assay: Inhibition of wild type EGFR (unknown origin) using FAM-labelled peptide as substrate incubated for 10 mins in presence of ATP by Kinase Glo luminescence assay
A549 [16] = assay: Cell cycle arrest in human A549 cells assessed as accumulation at G2/M phase at 10 uM incubated for 48 hrs […] staining based flow cytometric analysis (reference value: 2.67 %); type: functional
NCI-H1975 [17] = assay: Induction of morphological changes in human H1975 cells assessed as chromatin agglutination in nucleus at 0.01 to 0.10 uM incubated for 6 hrs by Hoechst33258 staining-based fluorescent microscopic analysis; type: functional, cell-based; details: dose microM 0.01-0.10, time 6.0 hrs
NCI-H1975 [18] = assay: Induction of apoptosis in human H1975 cells assessed as late apoptotic cells at 10 uM incubated for 48 hrs Annexin V-FITC staining based flow cytometric analysis (reference value: 1.77 %); type: functional
A549 [19] = assay: Cell cycle arrest in human A549 cells assessed as accumulation at G2/M phase at 1 uM incubated for 48 hrs […] staining based flow cytometric analysis (reference value: 2.67 %); type: functional
NCI-H1975 [20] = assay: Induction of morphological changes in human H1975 cells assessed as dense nuclei staining at 0.01 to 0.10 uM incubated for 6 hrs by Hoechst 33258 staining-based fluorescent microscopic analysis; type: functional, cell-based; details: dose microM 0.01-0.10, time 6.0 hrs
A549 [21] = assay: Cell cycle arrest in human A549 cells assessed as accumulation at S phase at 1 uM incubated for 48 hrs […] staining based flow cytometric analysis (reference value: 22.64 %); type: functional
A549 [22] = assay: Cell cycle arrest in human A549 cells assessed as accumulation at S phase at 10 uM incubated for 48 hrs […] staining based flow cytometric analysis (reference value: 22.64 %); type: functional
NCI-H1975 [23] = assay: Induction of morphological changes in human H1975 cells assessed as chromatin shrinkage and apoptotic body formation at 0.01 to 0.10 uM incubated for 6 hrs by AO staining-based fluorescent microscopic analysis; type: functional, cell-based; details: dose microM 0.01-0.10, time 6.0 hrs
NCI-H1975 [24] = assay: Induction of apoptosis in human H1975 cells assessed as early apoptotic cells at 10 uM incubated for 48 hrs Annexin V-FITC staining based flow cytometric analysis (reference value: 2.06 %); type: functional
L02 = assay: Cytotoxicity against human L02 cells assessed as reduction in cell viability measured after 72 hrs by MTT assay; type: cell-based; details: L02, 72 h
NCI-H1975 [25] = assay: Induction of apoptosis in human H1975 cells assessed as live cells at 10 uM incubated for 48 hrs Annexin V-FITC staining based flow cytometric analysis (reference value: 96.09 %); type: functional
[26] = biological target: Epidermal growth factor receptor (Homo sapiens, UniProt P00533, L858R/T790M); assay: Inhibition of EGFR T790M/L858R mutant (unknown origin) using FAM-labelled peptide as substrate incubated for 10 mins in presence of ATP by Kinase Glo luminescence assay
NCI-H1975 [27] = assay: Induction of apoptosis in human H1975 cells assessed as live cells at 1 uM incubated for 48 hrs Annexin V-FITC staining based flow cytometric analysis (reference value: 96.09 %); type: functional
A549 [28] = assay: Cell cycle arrest in human A549 cells assessed as accumulation at G2/M phase at 1 to 10 uM incubated for 48 hrs […] staining based flow cytometric analysis; type: functional; details: dose microM 1-10, time […]
NCI-H1975 [29] = assay: Induction of apoptosis in human H1975 cells assessed as late apoptotic cells at 1 to 10 uM incubated for 48 hrs Annexin V-FITC staining based flow cytometric analysis; type: functional, cell-based; details: dose microM 1-10, time […]
NCI-H1975 [30] = assay: Antiproliferation activity against human NCI-H1975 cells harboring EGFR T790M/L858R mutation assessed as reduction in cell viability measured after 72 hrs by MTT assay; type: functional, cell-based; details: NCI-H1975, 72 h
NCI-H1975 [31] = assay: Induction of apoptosis in human H1975 cells assessed as necrotic cells at 1 uM incubated for 48 hrs Annexin V-FITC staining based flow cytometric analysis (reference value: 0.08 %); type: functional
NCI-H1975 [32] = assay: Induction of apoptosis in human H1975 cells assessed as early apoptotic cells at 1 uM incubated for 48 hrs Annexin V-FITC staining based flow cytometric analysis (reference value: 2.06 %); type: functional
[33] = Selectivity index, ratio of IC50 for human L02 cells to IC50 for human A549 cells assessed as reduction in cell viability measured after 72 hrs by MTT assay; type: toxicity; details: L02 cells versus A549 cells, read-out: Ratio IC50
HeLa = assay: Antiproliferation activity against human HeLa cells assessed as reduction in cell viability measured after 72 hrs by MTT assay; type: functional, cell-based
A549 [34] = assay: Cell cycle arrest in human A549 cells assessed as accumulation at G0/G1 phase at 1 uM incubated for 48 hrs […] staining based flow cytometric analysis (reference value: 74.69 %); type: functional
A549 [35] = assay: Cell cycle arrest in human A549 cells assessed as accumulation at G0/G1 phase at 10 uM incubated for 48 hrs […] staining based flow cytometric analysis (reference value: 74.69 %); type: functional

Sequence of Hepatocyte growth factor receptor (Homo sapiens) (P08581 whole entry): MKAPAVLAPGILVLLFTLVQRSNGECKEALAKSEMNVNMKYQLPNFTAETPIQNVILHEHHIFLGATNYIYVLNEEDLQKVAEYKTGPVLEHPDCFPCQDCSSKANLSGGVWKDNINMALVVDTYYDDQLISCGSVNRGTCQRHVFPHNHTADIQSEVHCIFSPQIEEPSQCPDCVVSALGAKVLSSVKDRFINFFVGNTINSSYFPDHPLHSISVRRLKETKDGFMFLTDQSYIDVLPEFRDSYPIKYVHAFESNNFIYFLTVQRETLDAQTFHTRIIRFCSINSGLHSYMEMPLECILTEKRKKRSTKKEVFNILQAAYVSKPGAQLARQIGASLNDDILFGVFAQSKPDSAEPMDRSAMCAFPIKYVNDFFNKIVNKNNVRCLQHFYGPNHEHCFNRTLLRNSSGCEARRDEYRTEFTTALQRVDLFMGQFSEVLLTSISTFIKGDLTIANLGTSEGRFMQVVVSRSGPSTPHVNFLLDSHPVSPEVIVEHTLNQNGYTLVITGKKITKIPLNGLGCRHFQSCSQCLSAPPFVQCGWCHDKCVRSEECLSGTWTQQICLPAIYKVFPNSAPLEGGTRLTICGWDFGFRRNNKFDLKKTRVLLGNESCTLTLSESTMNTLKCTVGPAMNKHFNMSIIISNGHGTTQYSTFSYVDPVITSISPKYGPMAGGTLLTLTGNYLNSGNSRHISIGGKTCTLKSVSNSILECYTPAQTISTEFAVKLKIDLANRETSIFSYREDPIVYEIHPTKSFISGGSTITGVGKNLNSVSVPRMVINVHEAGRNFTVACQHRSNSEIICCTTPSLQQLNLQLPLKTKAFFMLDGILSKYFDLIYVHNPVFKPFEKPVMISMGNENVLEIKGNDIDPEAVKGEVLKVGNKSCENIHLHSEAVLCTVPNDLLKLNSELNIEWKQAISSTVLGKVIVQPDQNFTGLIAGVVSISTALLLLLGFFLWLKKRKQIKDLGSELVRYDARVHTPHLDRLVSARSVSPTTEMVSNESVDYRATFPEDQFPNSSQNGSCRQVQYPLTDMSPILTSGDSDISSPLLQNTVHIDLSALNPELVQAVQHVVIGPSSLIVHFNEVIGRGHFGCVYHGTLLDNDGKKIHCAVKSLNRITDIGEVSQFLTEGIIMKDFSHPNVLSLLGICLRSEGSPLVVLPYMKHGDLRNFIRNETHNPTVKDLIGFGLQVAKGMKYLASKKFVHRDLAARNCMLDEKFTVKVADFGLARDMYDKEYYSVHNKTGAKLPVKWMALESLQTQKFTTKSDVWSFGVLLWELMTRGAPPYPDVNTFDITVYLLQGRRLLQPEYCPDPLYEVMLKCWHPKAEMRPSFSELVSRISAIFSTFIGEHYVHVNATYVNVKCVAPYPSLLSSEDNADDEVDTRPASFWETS
Sequence of Vascular endothelial growth factor receptor 2 (Homo sapiens) (P35968 whole entry): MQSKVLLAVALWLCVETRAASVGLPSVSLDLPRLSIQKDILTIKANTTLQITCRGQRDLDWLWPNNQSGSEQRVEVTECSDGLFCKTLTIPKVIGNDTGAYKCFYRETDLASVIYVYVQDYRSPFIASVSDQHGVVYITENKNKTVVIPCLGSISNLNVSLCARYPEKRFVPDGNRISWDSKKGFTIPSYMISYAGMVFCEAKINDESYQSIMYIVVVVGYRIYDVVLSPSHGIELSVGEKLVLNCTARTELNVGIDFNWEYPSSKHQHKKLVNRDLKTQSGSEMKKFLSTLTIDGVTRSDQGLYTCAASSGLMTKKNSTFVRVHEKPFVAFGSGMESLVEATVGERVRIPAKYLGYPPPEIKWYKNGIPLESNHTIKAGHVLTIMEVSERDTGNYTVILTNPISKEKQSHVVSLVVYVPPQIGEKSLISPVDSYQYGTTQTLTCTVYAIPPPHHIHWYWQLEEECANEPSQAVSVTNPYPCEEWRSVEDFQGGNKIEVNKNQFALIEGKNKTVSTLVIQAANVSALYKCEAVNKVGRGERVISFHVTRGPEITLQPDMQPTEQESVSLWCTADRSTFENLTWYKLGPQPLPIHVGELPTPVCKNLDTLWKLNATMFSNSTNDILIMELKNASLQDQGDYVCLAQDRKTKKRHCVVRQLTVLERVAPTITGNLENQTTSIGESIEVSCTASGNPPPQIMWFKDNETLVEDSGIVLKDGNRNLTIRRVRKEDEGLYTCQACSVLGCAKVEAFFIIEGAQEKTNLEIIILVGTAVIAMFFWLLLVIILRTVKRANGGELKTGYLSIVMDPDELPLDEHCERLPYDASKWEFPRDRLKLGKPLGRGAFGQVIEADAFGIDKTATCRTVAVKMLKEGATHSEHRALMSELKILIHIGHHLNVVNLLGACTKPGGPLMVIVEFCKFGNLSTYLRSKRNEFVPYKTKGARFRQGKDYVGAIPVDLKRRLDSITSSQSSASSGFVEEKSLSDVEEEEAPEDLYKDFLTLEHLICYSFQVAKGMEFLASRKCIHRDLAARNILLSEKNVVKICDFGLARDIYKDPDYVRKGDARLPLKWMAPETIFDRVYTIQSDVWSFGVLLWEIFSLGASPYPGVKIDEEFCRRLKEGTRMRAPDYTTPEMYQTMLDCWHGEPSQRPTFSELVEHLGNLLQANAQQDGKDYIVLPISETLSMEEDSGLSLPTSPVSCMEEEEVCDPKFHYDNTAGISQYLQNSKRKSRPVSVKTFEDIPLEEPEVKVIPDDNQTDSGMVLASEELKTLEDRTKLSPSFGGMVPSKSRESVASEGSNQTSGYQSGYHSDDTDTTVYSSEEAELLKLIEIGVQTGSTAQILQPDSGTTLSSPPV
Sequence of Epidermal growth factor receptor (Homo sapiens, UniProt P00533, T790M) (P00533 25-1210 T790M limits assumed): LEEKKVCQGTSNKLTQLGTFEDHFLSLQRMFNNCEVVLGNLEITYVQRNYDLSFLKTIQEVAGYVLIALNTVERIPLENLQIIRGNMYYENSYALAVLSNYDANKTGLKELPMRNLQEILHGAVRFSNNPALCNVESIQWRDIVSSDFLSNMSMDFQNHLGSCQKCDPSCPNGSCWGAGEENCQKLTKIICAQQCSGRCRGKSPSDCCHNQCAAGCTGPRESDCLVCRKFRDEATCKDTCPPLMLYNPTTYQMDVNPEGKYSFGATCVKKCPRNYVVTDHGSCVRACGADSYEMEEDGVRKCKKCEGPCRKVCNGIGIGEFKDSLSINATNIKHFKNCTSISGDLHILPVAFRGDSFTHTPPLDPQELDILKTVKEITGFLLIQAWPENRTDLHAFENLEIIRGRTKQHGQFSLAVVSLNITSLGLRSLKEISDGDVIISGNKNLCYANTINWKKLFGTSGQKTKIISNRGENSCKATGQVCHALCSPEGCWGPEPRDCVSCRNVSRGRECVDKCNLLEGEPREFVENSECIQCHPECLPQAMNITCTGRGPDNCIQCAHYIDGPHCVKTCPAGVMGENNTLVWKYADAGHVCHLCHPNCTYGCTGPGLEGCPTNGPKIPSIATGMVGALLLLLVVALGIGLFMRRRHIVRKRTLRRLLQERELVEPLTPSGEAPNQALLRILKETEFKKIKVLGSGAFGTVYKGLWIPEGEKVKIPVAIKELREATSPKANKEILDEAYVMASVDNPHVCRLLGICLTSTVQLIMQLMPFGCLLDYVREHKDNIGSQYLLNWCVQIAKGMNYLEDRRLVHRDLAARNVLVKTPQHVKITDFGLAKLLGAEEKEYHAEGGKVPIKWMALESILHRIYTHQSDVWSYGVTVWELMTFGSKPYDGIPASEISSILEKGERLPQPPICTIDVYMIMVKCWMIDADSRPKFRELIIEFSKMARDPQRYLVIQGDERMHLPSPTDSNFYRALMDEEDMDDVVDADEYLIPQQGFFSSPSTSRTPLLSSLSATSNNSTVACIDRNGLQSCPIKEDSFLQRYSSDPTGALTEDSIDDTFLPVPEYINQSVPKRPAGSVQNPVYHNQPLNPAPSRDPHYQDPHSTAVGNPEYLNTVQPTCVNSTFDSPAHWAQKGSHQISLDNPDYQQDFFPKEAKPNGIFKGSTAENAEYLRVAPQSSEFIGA
Sequence of Epidermal growth factor receptor (Homo sapiens, UniProt P00533, L858R/T790M) (P00533 25-1210 T790M/L858R limits assumed): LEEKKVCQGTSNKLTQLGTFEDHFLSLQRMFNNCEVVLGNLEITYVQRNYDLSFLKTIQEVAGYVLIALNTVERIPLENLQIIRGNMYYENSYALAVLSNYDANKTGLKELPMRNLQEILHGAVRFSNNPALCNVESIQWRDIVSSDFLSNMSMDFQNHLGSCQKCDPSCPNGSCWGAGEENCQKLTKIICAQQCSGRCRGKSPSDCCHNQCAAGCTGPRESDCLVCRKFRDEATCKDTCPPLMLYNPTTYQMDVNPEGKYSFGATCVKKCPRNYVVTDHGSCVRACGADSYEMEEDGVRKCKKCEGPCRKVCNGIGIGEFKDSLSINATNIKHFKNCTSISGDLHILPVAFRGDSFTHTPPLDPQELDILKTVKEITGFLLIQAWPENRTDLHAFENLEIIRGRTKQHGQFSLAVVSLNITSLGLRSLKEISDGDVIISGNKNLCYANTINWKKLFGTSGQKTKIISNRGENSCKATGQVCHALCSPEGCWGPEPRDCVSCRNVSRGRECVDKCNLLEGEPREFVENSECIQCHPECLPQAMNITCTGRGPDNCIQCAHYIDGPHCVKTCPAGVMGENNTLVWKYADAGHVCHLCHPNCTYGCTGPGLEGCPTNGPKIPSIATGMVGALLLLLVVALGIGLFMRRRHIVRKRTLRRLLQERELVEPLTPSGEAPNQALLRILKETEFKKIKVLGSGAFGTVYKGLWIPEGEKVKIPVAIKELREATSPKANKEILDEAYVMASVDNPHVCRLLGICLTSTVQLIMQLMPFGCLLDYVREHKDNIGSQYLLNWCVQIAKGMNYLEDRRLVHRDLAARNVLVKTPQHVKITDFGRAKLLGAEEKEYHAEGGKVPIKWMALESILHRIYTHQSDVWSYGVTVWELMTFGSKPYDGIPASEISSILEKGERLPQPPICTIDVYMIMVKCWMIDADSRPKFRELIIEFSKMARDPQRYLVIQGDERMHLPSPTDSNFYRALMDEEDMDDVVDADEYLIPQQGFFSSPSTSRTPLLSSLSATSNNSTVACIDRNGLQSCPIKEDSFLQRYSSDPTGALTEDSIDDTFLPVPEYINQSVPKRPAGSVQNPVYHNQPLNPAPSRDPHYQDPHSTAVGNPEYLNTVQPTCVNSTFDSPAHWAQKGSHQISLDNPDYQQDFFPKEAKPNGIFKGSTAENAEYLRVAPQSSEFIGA

SMILES: C=CC(=O)Nc1cccc(Oc2nc(Nc3ccc(N4CCN(C)CC4)cc3)nc3ccsc23)c1 [OLMUTINIB]
- Activity (A549 [1]): 14.65%
- Activity (NCI-H1975 [2]): 4.63%
- inhibition [3]: inactive
- Activity (A549 [4]): 8.72%
- Activity (NCI-H1975 [5]): 0.34%
- inhibition [6]: inactive
- Activity (NCI-H1975 [7]): 10.76%
- Activity (NCI-H1975 [8]): 84.27%
- inhibition (Homo sapiens): inactive
- inhibition [9]: 7.1%
- Activity (A549 [10]): 76.63%

SMILES: C=CC(=O)Nc1cccc(Oc2nc(Nc3ccc(OC)cc3)nc3c2CSCC3)c1
- IC50 (MCF7): 11.7 µM
- Activity (A549 [1]): 14.44%
- Activity (NCI-H1975 [2]): 7.5%
- Activity (NCI-H1975 [11]): 8.23%
- IC50 (A549 [12]): 4.22 µM
- inhibition [3]: -1.2%
- Activity (NCI-H1975 [13]): 0.58%
- IC50 [14]: 0.542 µM
- Activity (A549 [4]): 10.69%
- IC50 [15]: > 1 µM
- Activity (A549 [16]): 23.23%
- Activity (NCI-H1975 [17]): Active
- Activity (NCI-H1975 [18]): 15.46%
- Activity (A549 [19]): 8.62%
- Activity (NCI-H1975 [20]): Active
- Activity (A549 [21]): 20.22%
- Activity (A549 [22]): 14.2%
- Activity (NCI-H1975 [23]): Active
- Activity (NCI-H1975 [24]): 5.2%
- IC50 (L02): > 50 µM
- Activity (NCI-H1975 [5]): 0.6%
- Activity (NCI-H1975 [25]): 78.76%
- inhibition [6]: 3.9%
- IC50 [26]: 0.132 µM
- Activity (NCI-H1975 [7]): 10.7%
- Activity (NCI-H1975 [8]): 81.2%
- Activity (NCI-H1975 [27]): 87.16%
- Activity (A549 [28]): Dose-dependent effect
- Activity (NCI-H1975 [29]): Dose-dependent effect
- IC50 (NCI-H1975 [30]): 2.19 µM
- Activity (NCI-H1975 [31]): 0.85%
- Activity (NCI-H1975 [32]): 3.76%
- inhibition (Homo sapiens): 48.1%
- selectivity ratio at 72 h [33]: > 11.8
- IC50 (HeLa): 20.9 µM
- inhibition [9]: 0.5%
- Activity (A549 [34]): 71.16%
- Activity (A549 [35]): 62.57%
- Activity (A549 [10]): 74.87%

— ChEMBL document CHEMBL4725402, “Discovery of thiapyran-pyrimidine derivatives as potential EGFR inhibitors” (Bioorg Med Chem, 2020)
